The text below walks through data of patent US9739765B2, “Metal-based covalent viability reagent for single cell analysis” (The Board of Trustees of the Leland Stanford Junior …, priority 2013, dated 2017).

Assay [1] deals with Jurkat, KG-1, HeLa, OVCAR3 cell lines. In words: Cisplatin viability labeling of suspension and adherent cell lines spiked with heat-killed cells, mass cytometry. The assay is classed as cell-based. The procedure: Cell culture. The cancer cell lines Jurkat (T acute lymphoblastic leukemia suspension cells) and OVCAR-3 (ovarian carcinoma adherent cells) were cultured in RPMI-1640 (GIBCO, Invitrogen, Carlsbad, Calif.) with 10% heat-inactivated fetal bovine serum (FBS), 2 mM L-glutamine and 100 U/ml penicillin. The suspension cell lines KG-1 (acute myeloid leukemia) and HL-60 (acute myeloid leukemia cells) were cultured in IMDM (GIBCO, Invitrogen, Carlsbad, Calif.) with 20% heat-inactivated FBS and 100 U/ml penicillin. The adherent cell line HeLa (cervical carcinoma) was cultured in DMEM (GIBCO, Invitrogen, Carlsbad, Calif.) with 10% heat-inactivated FBS and 100 U/ml penicillin. All cell lines were maintained at 37° C. in a humidified 5.0% CO2 environment. Peripheral blood from healthy donors was purchased from the Stanford Blood Bank according to an IRB-approved protocol. […] Samples were then prepared for fluorescence and mass cytometry and the live/dead ratio of cells determined by each technology. […] Cells were analyzed on a CyTOF® mass cytometer (DVS Sciences, Richmond Hill, Ontario, Canada). […] Cells were measured at approximately 500 cells per second, noise reduction was activated and cell extraction parameters were set to: Cell length, range was set from 10 to 65 pushes, and the lower convolution threshold was set to 10. […]

In the next assay the test system is KG-1 cells. Briefly: Cisplatin viability labeling of partially heat-killed KG-1 cells, mass cytometry. The assay is classed as cell-based, human. Particulars: KG-1 cells spiked with approximately 30% heat-killed cells; 1 min cisplatin at 10, 50, or 250 μM (all doses). The procedure: Generation of non-viable control cells. To generate samples with known amounts of non-viable cells, an aliquot of cultured cells was heat-killed at 55° C. for 1 hour, cooled to 37° C. and then spiked into each culture of viable cells at known percentages based on Trypan blue exclusion staining. Samples were then prepared for fluorescence and mass cytometry and the live/dead ratio of cells determined by each technology.
Cisplatin exposure. Cisplatin (WR International, Radnor, Pa., Cat #89150-634) was stored at −80° C. as a stock solution of 100 mM in DMSO (Hybrimax, Sigma Aldrich, St Louis, Mo.). Working solutions (10 mM) were prepared fresh on the day of each experiment by diluting the stock solution into PBS at 4° C. […]
(§1) Mass cytometry measurement. Cells were analyzed on a CyTOF® mass cytometer (DVS Sciences, Richmond Hill, Ontario, Canada). […] Cells were measured at approximately 500 cells per second, noise reduction was activated and cell extraction parameters were set to: Cell length, range was set from 10 to 65 pushes, and the lower convolution threshold was set to 10.
Comparison between fluorescence and mass cytometry protocols. […] In the first experiment a suspension of human myeloid KG-1 cells spiked with approximately 30% of heat-killed KG-1 cells (determined by Trypan blue extrusion), was tested with Aqua and cisplatin. […]

Assay [2] has as its system phosphorylation of SLP-76 (Y128) and SLP-65 in PBMCs. In words: Pervanadate stimulation of cisplatin-labeled PBMCs, pSLP-76/65 signaling. It counts as cell-based. Particulars: myeloid cells, T cells and B cells of PBMCs; 125 μM, 15 min. The procedure: Pervanadate stimulation of PBMCs. Frozen PBMCs were thawed at 37° C. and resuspended in RPMI-1640/10% FBS/2 mM EDTA. A fraction of the PBMCs (30%) was heat-killed separately and spiked back in, as described above. Cells were treated with cisplatin according to the standard protocol described above, at 10^6 cells/ml. Samples were then treated with activated sodium orthovanadate at a final concentration of 125 μM for 15 min at 37° C. Cells were fixed with 1.6% (final concentration) PFA for 10 min at room temperature.
Antibody staining. […]
as §1
Cisplatin as a viability indicator for primary samples. […] Therefore to evaluate signaling in PBMCs, phosphorylation of SLP-76 (Y128) (T cells and myeloid cells) and SLP-65 (Y76) (B cells) was determined after a […] exposure to vanadate, a global tyrosine phosphatase inhibitor, shown to increase intracellular kinase activity and phosphotyrosine levels.

As for `N.N.[Cl][Pt][Cl]` [cisplatin, Cisplatin [Pt(NH3)2Cl]], in assay [1] (1-minute pulse protocol, routinely observed (FIG. 2-5)), the “signal-to-noise ratios separating live and dead cells” value was “greater than 10 fold”. Also, the “signal-to-noise ratios, cisplatin-high (dead) vs cisplatin-low (live) populations” value in assay [1] (each cisplatin concentration (10, 50, 250 μM), HeLa, OVCAR3, Jurkat, KG-1) is “above 10”. In addition, the “frequency of cisplatin positive (dead) cells” value in the assay with KG-1 cells is given as 26-28%.
For “activated sodium orthovanadate [pervanadate]”, in assay [2], the “SLP-76/65 phosphorylation in response to pervanadate, cisplatin-high populations” value is recorded as “no response” and the “SLP-76/65 phosphorylation in response to pervanadate, cisplatin-low populations” value is “strong increase”.
